# Assay results from ChEMBL document CHEMBL1201862, “PubChem BioAssay data set” (2004).
# “And” between values parts separate entries of the source, which are not always exact repeats. Equal values may be shown once. The source made the active and inactive calls. Rule as the data show it, for most assays here: actives have a measured EC50 and inactives only a lower limit.
# Target: T1, Cytochrome P450 1A2 (Homo sapiens, UniProt P05177);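 also: PubChem cytochrome P450 panel assay, CYP1A2 panel member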
# T1 sequence (P05177 whole entry): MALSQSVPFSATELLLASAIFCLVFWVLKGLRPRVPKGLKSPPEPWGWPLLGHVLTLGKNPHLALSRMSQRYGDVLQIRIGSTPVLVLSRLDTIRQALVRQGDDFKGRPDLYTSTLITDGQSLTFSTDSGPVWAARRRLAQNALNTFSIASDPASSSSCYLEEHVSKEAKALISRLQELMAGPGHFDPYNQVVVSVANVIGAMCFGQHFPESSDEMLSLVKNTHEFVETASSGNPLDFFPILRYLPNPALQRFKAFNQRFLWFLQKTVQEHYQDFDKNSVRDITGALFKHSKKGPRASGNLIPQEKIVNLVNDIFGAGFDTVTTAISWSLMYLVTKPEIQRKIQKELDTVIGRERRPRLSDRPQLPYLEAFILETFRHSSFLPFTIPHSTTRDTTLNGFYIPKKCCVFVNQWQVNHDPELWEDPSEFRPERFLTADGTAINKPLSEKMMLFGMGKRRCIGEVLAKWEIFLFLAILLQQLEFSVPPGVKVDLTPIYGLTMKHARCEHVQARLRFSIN
row,SMILES,AC50
1,COc1ccc([N+](=O)[O-])cc1N=C(S)NC(NC(=O)Cc1ccc(OC)c(OC)c1)C(Cl)(Cl)Cl (stereo not given),17.8 µM (inconclusive)
2,CCOC(=O)NC(NC(=O)OCC)C(=O)c1ccc(F)cc1,10 µM (inconclusive)
3,COc1ccc2c(c1)c(CC(=O)O)c(C)n2C(=O)c1ccc(Cl)cc1 [INDOMETHACIN],10 µM (inconclusive) and 39.8 µM (inconclusive)
4,C=CCn1c(=O)c2c(nc(Br)n2Cc2ccccc2Cl)n(C)c1=O,15.8 µM (inconclusive)
5,O=C(Nc1nnc(SCc2ccc(Cl)cc2)s1)c1ccco1,3.16 µM (inconclusive)
6,C[C@](N)(CCP(=O)(O)O)C(=O)O,39.8 µM (inconclusive)
7,CN(C)c1ncc2nc(-c3ccc(F)cc3)c(=O)n(CCc3ccccc3)c2n1,2.51 µM (inconclusive)

# Next, values leading:
row,AC50,SMILES
1,25.1 µM (inconclusive),COc1ccc(NC(=O)N2CCC3(CC2)CCN(C(=O)c2ccncc2)CC3)cc1
2,1.41 µM (inconclusive),COc1ccc(C(F)(F)F)cc1N/C=C\c1nnnn1-c1ccccc1
3,25.1 µM (inconclusive),COc1ccc(C(=O)N2CCC3(CC2)CCN(c2cccc(-c4ccccc4)c2)CC3)cc1
4,17.8 µM (inconclusive),CC(=O)Nc1sc2c(c1CN1CCN(C)CC1)CCCC2
5,20 µM (inconclusive),CCOc1ccc(NC(=O)c2ccc(OC)cc2)cc1
6,15.8 µM (inconclusive),O=C(Nc1ccccc1)/C(=C\c1ccncc1)NC(=O)c1ccccc1

# System: Streptococcus
# Experiment: GAS UMAA2166 growth inhibition – luminescence, BacTiterGlo, counter-screen for streptokinase expression inhibitor project, dose response (AID 1915);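 also: potency for reduction of bacterial viability or growth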
# Assay type: functional, organism-based
row,SMILES,EC50
1,CN(C)S(=O)(=O)c1ccc(C(=O)Nc2nnc(-c3ccc4c(c3)CCCC4)o2)cc1,0.264 µM (active)

# System: Streptococcus sp. 'group A'
# Experiment: Streptococcus pyogenes SK(-)GAS viability under kanamycin – luminescence, BacTiterGlo, confirmation, counter-screen for streptokinase expression inhibitor project, dose response (AID 1900)
# Assay type: functional, organism-based
row,SMILES,EC50
1,CN(C)S(=O)(=O)c1ccc(C(=O)Nc2nnc(-c3ccc4c(c3)CCCC4)o2)cc1,0.286 µM (active)
2,CC1(C)CC[C@]2(C(=O)O)CC[C@]3(C)C(=CCC4[C@@]5(C)CC[C@H](O)C(C)(C)C5CC[C@]43C)C2C1 (stereo not given in full),2.6 µM (active)

# Target: Cytochrome P450 3A4 (Homo sapiens, UniProt P08684);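 also: CYP3A4 tested as one member of a cytochrome P450 panel screen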
# Sequence (P08684 whole entry): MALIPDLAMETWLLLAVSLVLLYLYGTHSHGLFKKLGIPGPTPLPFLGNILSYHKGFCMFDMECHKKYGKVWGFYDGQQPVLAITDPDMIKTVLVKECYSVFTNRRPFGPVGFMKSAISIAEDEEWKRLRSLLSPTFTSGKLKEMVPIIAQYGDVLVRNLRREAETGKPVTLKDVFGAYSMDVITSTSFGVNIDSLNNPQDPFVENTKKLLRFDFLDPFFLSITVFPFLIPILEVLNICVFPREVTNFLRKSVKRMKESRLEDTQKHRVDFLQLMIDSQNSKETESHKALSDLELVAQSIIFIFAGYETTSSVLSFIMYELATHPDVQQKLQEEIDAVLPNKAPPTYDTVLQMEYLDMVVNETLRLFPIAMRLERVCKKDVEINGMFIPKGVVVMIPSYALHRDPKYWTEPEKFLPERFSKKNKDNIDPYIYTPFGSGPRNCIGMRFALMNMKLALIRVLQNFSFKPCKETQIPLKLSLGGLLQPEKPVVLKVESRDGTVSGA
row,SMILES,AC50
1,CCOc1cc(/C=N/O)cc(Cl)c1OC,31.6 µM (inconclusive)
2,CO[C@@H]1CC=C2CCN3CCC4=C(CC(=O)OC4)[C@]23C1,39.8 µM (inconclusive)
3,NCCNC(=O)c1ncsc1-c1cccc(F)c1,31.6 µM (inconclusive)
4,O=C(Nc1nnc(SCc2ccc(Cl)cc2)s1)c1ccco1,31.6 µM (inconclusive)
5,Cc1nn(CC(=O)NCc2ccccc2)c(C)c1[N+](=O)[O-],22.4 µM (inconclusive)

# Other lines, results leading:
row,AC50,SMILES
1,15.8 µM (inconclusive),COc1ccc(NC(=O)N2CCC3(CC2)CCN(C(=O)c2ccncc2)CC3)cc1
2,31.6 µM (inconclusive),COc1ccc(C(F)(F)F)cc1N/C=C\c1nnnn1-c1ccccc1
3,25.1 µM (inconclusive),COc1cc2c(cc1OC)C(C(=O)N1CCOCC1)C(c1cccs1)N(C)C2=O (stereo not given)
4,12.6 µM (inconclusive),N#Cc1ccc(CN2CC3(CCN(C(=O)c4ccncc4)CC3)C2)cc1
5,0.794 µM (inconclusive),O=C(Nc1ccccc1)/C(=C\c1ccncc1)NC(=O)c1ccccc1

# System: not listed separately
# Experiment: NIH3T3 cell viability loss – ATP luminescence, mouse fibroblasts, counter-screen, dose response (AID 2010);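 also: cells exposed to compound for about 90 hours before reading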
# Assay type: functional, cell-based
row,SMILES,EC50
1,CCCOc1ccc(NC(=O)OC2CCN(C)CC2)cc1,> 60 µM (not active)
2,Cc1cc(Cn2ccnc2)c(C)c([N+](=O)[O-])c1Cn1ccnc1,> 60 µM (not active)
3,Cc1cc(NC(=O)c2cccs2)n(-c2nc3ccccc3[nH]2)n1,14.2 µM (active)
4,Cc1ccc2cc(C(c3nnnn3C3CCCC3)N(Cc3ccco3)Cc3cccs3)c(O)nc2c1 (stereo not given),> 60 µM (not active)
5,C/C(=N\Nc1nc(N2CCCCC2)nc(N2CCOCC2)n1)c1ccccc1O,6.37 µM (active)
6,Cc1c(C(=O)NCc2ccc3c(c2)OCO3)oc2ccc(S(=O)(=O)N3CCC(C)CC3)cc12,50.9 µM (active)
7,CCCOc1ccc(N2C(=O)CC(N(CCc3ccc(OC)c(OC)c3)C(S)=Nc3ccccc3)C2=O)cc1 (stereo not given),> 30 µM (not active)
8,O=[N+]([O-])c1ccc(S(=O)(=O)NCCS(=O)(=O)N2CCN(c3ccccc3)CC2)cc1,> 60 µM (not active)
9,CCOc1cc(CNc2cccc3ccccc23)cc(Br)c1OCC(=O)NC(C)(C)C,> 30 µM (not active)
10,CN1CCN(c2ccc(NC(=O)c3ccc4c(c3)nc(O)n4Cc3ccc(F)cc3)cc2)CC1,> 30 µM (not active)
11,COc1ccccc1N1CCN(C(CNS(=O)(=O)c2cc(F)ccc2F)c2cccnc2)CC1 (stereo not given),> 60 µM (not active)
12,c1ccc(C(c2ccccc2)c2noc(CN3CCC(c4ccncc4)CC3)n2)cc1,> 30 µM (not active)
13,CC(c1nnnn1C(C)(C)C)N(Cc1cccnc1)Cc1ccccc1Cl (stereo not given),> 60 µM (not active)
14,COc1ccc(S(=O)(=O)N2CCOC23CCN(S(=O)(=O)c2ccc([N+](=O)[O-])cc2)CC3)cc1,> 30 µM (not active)
15,CCN1CCN(c2oc(COc3ccc(-c4ccccc4)cc3)nc2C#N)CC1,> 60 µM (not active)

# Target: T2, Heat shock factor protein 1 (Mus musculus, UniProt P38532)
# T2 sequence (P38532 whole entry): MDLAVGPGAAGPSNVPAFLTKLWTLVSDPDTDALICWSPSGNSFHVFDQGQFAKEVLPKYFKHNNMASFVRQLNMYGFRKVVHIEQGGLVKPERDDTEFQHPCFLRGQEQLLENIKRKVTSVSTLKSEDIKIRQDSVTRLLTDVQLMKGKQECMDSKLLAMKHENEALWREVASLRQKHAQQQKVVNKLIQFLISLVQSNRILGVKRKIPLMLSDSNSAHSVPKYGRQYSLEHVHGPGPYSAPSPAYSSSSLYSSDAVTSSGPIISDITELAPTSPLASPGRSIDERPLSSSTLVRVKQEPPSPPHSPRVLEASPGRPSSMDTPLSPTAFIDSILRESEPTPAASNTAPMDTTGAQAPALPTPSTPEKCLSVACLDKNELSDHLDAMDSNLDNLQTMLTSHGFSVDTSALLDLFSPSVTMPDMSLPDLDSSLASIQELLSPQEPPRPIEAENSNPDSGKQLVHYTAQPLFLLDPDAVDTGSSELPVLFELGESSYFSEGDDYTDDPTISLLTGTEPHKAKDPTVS
# Experiment: enhancement of HSF1-driven luciferase signal – cell-based, NIH3T3, luminescence, dose retest, confirmation (AID 435004);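 also: stress induced by proteasome inhibitor MG132 added 30 min after compound; luciferase reporter driven by HSF1 response element in NIH3T3 cells; actives raise luminescence as potentiators of the MG132 stress response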
# Assay type: functional
row,SMILES,EC50
1,CC(C)(C)c1cc(NC(=O)CCSc2nnc3ccccn23)cc(C(C)(C)C)c1,> 260 µM (inactive)
2,CCC(Sc1nc2cc3c(cc2c(=O)n1Cc1ccco1)OCO3)C(=O)NCCOC (stereo not given),> 260 µM (inactive)
3,CN(C)CCCCNCCCNC(=O)/C=N\O,> 260 µM (inactive)
4,CCS(=O)(=O)C(=C1NCCO1)S(=O)(=O)CC,> 260 µM (inactive)
5,Cc1cnn(-c2cc(N/N=C/c3cccc(F)c3)ncn2)c1,> 260 µM (inactive)
6,CCN(CC)C(=O)c1ccc(C)c(Br)c1,> 260 µM (inactive)
7,O=C(NNc1c(Cl)cccc1Cl)C1CCC1,> 260 µM (inactive)

# Results, then the molecule that gave them:
row,EC50,SMILES
1,> 260 µM (inactive),CCc1cccc(CC)c1NC(=O)COC(=O)CC1c2ccccc2CCN1S(=O)(=O)c1ccc(F)cc1 (stereo not given)
2,> 260 µM (inactive),O=C(CSc1nccn(-c2ccc(F)c(F)c2)c1=O)NC1CCCC1
3,> 260 µM (inactive),COC(=O)CN1C(c2cccc(Cl)c2)=Nc2ccc(Cl)cc2C1c1ccccc1 (stereo not given)
4,7.2 µM (active),COc1ccc(C(=O)n2nc(C)cc2Nc2ccccc2)cc1
5,> 260 µM (inactive),COc1cccc(NC(=O)CSc2nc(N)cc(N)n2)c1
6,> 260 µM (inactive),COC(=O)C(NNc1ccccc1C)(NC(=O)c1ccc(F)cc1)C(F)(F)F (stereo not given)
7,> 260 µM (inactive),COc1ccc(CCN=C(NS(=O)(=O)c2ccccc2)c2ccccc2)cc1OC
8,> 260 µM (inactive),C(=N\N1CCN(Cc2cccc3ccccc23)CC1)/c1cccnc1
9,> 260 µM (inactive),Cc1c(N(C)S(=O)(=O)c2cccc(C(=O)NC(C)C)c2)c(=O)n(-c2ccccc2)n1C
10,> 260 µM (inactive),Cc1csc(-c2cnn(-c3ccccc3)c2NC(=O)c2cccc(C(F)(F)F)c2)n1
11,> 260 µM (inactive),O=C(CCc1nnc(CCCCc2ccccc2)o1)NCCN1CCCCC1=O
12,> 260 µM (inactive),CC(=O)Nc1cccc(-n2nnc(SCC(=O)Nc3ccc(F)c(Cl)c3)n2)c1
13,> 260 µM (inactive),CCN(CCCNC(=O)CNC(=O)c1nn(-c2ccc(OC)cc2OC)c(=O)c2ccccc12)c1cccc(C)c1

# Target: Cytochrome P450 2D6 (Homo sapiens, UniProt P10635);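 also: CYP2D6 member of a cytochrome P450 panel assay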
# Sequence (P10635 whole entry): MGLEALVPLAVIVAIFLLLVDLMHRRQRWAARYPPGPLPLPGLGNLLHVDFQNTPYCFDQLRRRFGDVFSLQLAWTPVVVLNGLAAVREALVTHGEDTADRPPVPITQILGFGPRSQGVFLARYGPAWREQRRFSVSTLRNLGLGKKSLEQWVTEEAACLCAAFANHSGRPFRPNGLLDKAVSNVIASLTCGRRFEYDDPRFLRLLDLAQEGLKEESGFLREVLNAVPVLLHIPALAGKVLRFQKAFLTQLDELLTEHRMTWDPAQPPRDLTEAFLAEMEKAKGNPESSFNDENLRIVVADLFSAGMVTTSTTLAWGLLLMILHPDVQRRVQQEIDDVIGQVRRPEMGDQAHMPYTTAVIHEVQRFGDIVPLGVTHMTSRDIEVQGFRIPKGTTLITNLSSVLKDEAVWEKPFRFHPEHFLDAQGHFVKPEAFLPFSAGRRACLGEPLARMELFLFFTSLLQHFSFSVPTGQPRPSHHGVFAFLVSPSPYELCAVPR
row,AC50,SMILES
1,25.1 µM (inconclusive),CN(C)C(=O)c1ccc(-c2nc(NCc3cccs3)c3ccccc3n2)cc1
2,25.1 µM (inconclusive),COCC(=O)N1CCC2(CC1)CN(c1ccncc1)C2
3,39.8 µM (inconclusive),CS(=O)(=O)Nc1cccc(-c2nccc(Nc3ccc(F)cc3)n2)c1
4,2.82 µM (inconclusive),CC(C)(C)NC(=O)CSc1nnc(Cc2ccc3c(c2)OCO3)n1C1CCCCC1

# System: not listed separately
# Experiment: Trypanosoma cruzi growth suppression in host cells – NIH3T3 host cells, beta-gal luminescence, confirmation (AID 2044);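 also: intracellular parasites grown in NIH/3T3 mouse fibroblasts as host cells; luminescent beta-galactosidase reporter signal from transgenic T. cruzi replicating inside host cells; inhibitors lower the luminescence signal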
# Assay type: functional, cell-based
row,SMILES,EC50
1,CCCOc1ccc(NC(=O)OC2CCN(C)CC2)cc1,0.442 µM (active)
2,Cc1cc(Cn2ccnc2)c(C)c([N+](=O)[O-])c1Cn1ccnc1,2.05 µM (active)
3,Cc1cc(NC(=O)c2cccs2)n(-c2nc3ccccc3[nH]2)n1,1.95 µM (active)
4,Cc1ccc2cc(C(c3nnnn3C3CCCC3)N(Cc3ccco3)Cc3cccs3)c(O)nc2c1 (stereo not given),3.2 µM (active)
5,C/C(=N\Nc1nc(N2CCCCC2)nc(N2CCOCC2)n1)c1ccccc1O,0.681 µM (active)
6,Cc1c(C(=O)NCc2ccc3c(c2)OCO3)oc2ccc(S(=O)(=O)N3CCC(C)CC3)cc12,1.04 µM (active)
7,CCCOc1ccc(N2C(=O)CC(N(CCc3ccc(OC)c(OC)c3)C(S)=Nc3ccccc3)C2=O)cc1 (stereo not given),2.1 µM (active)
8,O=[N+]([O-])c1ccc(S(=O)(=O)NCCS(=O)(=O)N2CCN(c3ccccc3)CC2)cc1,0.247 µM (active)
9,CCOc1cc(CNc2cccc3ccccc23)cc(Br)c1OCC(=O)NC(C)(C)C,2.31 µM (active)
10,CN1CCN(c2ccc(NC(=O)c3ccc4c(c3)nc(O)n4Cc3ccc(F)cc3)cc2)CC1,0.955 µM (active)
11,COc1ccccc1N1CCN(C(CNS(=O)(=O)c2cc(F)ccc2F)c2cccnc2)CC1 (stereo not given),0.367 µM (active)
12,c1ccc(C(c2ccccc2)c2noc(CN3CCC(c4ccncc4)CC3)n2)cc1,0.943 µM (active)
13,CC(c1nnnn1C(C)(C)C)N(Cc1cccnc1)Cc1ccccc1Cl (stereo not given),0.496 µM (active)
14,COc1ccc(S(=O)(=O)N2CCOC23CCN(S(=O)(=O)c2ccc([N+](=O)[O-])cc2)CC3)cc1,2.03 µM (active)
15,CCN1CCN(c2oc(COc3ccc(-c4ccccc4)cc3)nc2C#N)CC1,2.66 µM (active)
